# Test results published in patent US20260364072A1, “METHODS FOR PROMOTING EXPANSION OF HUMAN CD34+ CELLS IN VIVO AND FOR PROMOTING NEURAL REGENERATION” (THE REGENTS OF THE UNIVERSITY OF CALIFORNIA, priority 2023, published 2026).
# Experiments:
# [1] = system: MCL1 and SF3B3 transcripts; experiment: Pharmacodynamic splice isoform qRT-PCR in PBMCs from treated NHPs; format: in vivo, cynomolgus monkeys
# Method: Pharmacodynamic studies were conducted on peripheral blood mononuclear cells (PBMCs) isolated from NHPs treated with escalating doses of Rebecsinib (3 mg/kg, 10 mg/kg, 15 mg/kg or 20 mg/kg) or a vehicle control and collected at 30 minute and 4 hours post-dose.
# (FIG. 29G, FIG. 29H) For in vivo TK and complementary pharmacodynamic studies, NHPs were given a single injection of Rebecsinib at 3-20 mg/kg, or vehicle control, and blood samples were drawn at regular intervals to determine plasma concentrations (FIG. 29G) of the compound along with splice isoform biomarker assays to quantify MCL1 exon skipping in PBMCs isolated from treated animals (FIG. 29H, n=2 animals per group).
# For quantitative analysis of splice isoform expression, RNA editing rates, and whole gene expression by qRT-PCR, cells or tissue fragments were harvested in RNA lysis buffer and total RNA was extracted using RNeasy mini or micro extraction kits (QIAGEN, Germantown, MD) following the manufacturer's protocol including a DNase incubation step to digest any trace genomic DNA present. Levels of ADAR1 variants and LSC-specific transcripts were quantified by qRT-PCR as previously described.^14 RNA-editing site-specific qRT-PCR (RESSqPCR) was performed for variants in AZIN1 transcripts.^53 Additional species-specific primers were also designed to quantify intron retention rates in cells treated with Rebecsinib as a biomarker of response to RNA splicing modulation. Specifically, for the two-step SYBR-green based assays, as previously described,^7,14,53 100-1000 ng of RNA were subjected to cDNA synthesis using the SUPERSCRIPT III™ (ThermoFisher Scientific) kit followed by qRT-PCR using SYBR GreenER (ThermoFisher Scientific) master mix according to the manufacturer's recommended procedures. qRT-PCR was performed using SYBR GREENER SUPER MIX™ (Life Technologies) on BioRad iQ5™, C1000 TOUCH™, or BioRad CFX384™ instruments. Human splice isoform-specific, RNA editing site-specific qPCR (RESSqPCR)^53. Primer sets that have not been previously published were designed and tested for efficiency followed by analyses in samples exposed to Rebecsinib, with species-specific HPRT primers used as controls. Samples with Ct<35 for the species-specific reference gene, HPRT, were included in analyses. Relative mRNA expression values were calculated using the 2^−ΔCT method, with normalization to untreated or vehicle-treated controls.^54
# ADAR1p150 = ADAR1p150 protein by intracellular flow cytometry in high-risk MF samples; format: cell-based, human; settings: 72 hr
# Method: (FIG. 28C) Flow cytometry-based quantification of ADAR1 p150 protein expression in high-risk MF samples after in vitro transduction of primary CD34^+ cells with ADAR1 nanoluc-GFP reporter or vector control (pCDH) followed by treatment with vehicle control (DMSO) or Rebecsinib (72 hr).
# Flow cytometry for stem and progenitor cell surface antibody staining was performed as previously described.^14 For phospho-flow, a subset of samples was fixed and permeabilized, then blocked and stained with APC-conjugated ADAR1p150 antibody (cat ab269444, 1:25) and pSTAT3 APC (cat 17-9033-42, 1:10) (Table S2). Fractions were analyzed with the BD LSR FORTESSA™ (Sanford Consortium for Regenerative Medicine Stem Cell Core) and FLOWJO™ software (TreeStar, Ashland, OR).
# [2] = system: sAML LSC, MF HPC, normal HSPC; experiment: Clonogenic survival and replating (self-renewal) assays in stromal co-culture; format: cell-based, human
# From the text: (FIG. 28D, FIG. 28E) Quantification of colony formation (survival, FIG. 28D) and replating (self-renewal, FIG. 28E) of high-risk MF HPC and sAML LSC compared with cord blood (CB) and aged versus young normal bone marrow (a-NBM, y-NBM) controls treated with Rebecsinib at increasing concentrations. Bar graphs show data as mean±SEM and statistical analyses by pairwise t-test and dose-response assays show data as mean±SD and statistical analyses by one-way ANOVA.
# (§1) Primary patient samples and normal bone marrow controls used for functional assays are described in Table 1. Human HS5 and HS27a^45 or mouse bone marrow cells lines SL (hSCF and hIL3) and M2 (hIL3 and hG-CSF) were irradiated and then mixed at a ratio of 1:1 and incubated overnight for attachment. […] After 2 weeks primary colonies (more than 40 cells) were counted and individual multilineage colonies were plucked, cells resuspended, and re-plated again in fresh MC. Secondary colonies were counted after another 14 days. […]
# as §1, with “Human” for “Primary patient samples and normal bone marrow controls used for functional assays are described in Table 1. Human”, “resuspended” for “resuspended,”
structure (smiles),measurement,setting,value
CC[C@H](OC)[C@@H](C)[C@H]1O[C@@H]1[C@@H](O)[C@H](C)/C=C/C=C(\C)[C@H]1OC(=O)C[C@H](O)CC[C@@](C)(O)[C@@H](OC(C)=O)/C=C/[C@@H]1C [Rebecsinib],MCL1 exon skipping in PBMCs,"[1]; NHP, 3, 10, 15 or 20 mg/kg, 30 minute and 4 hours post-dose",on-target splicing modulation typified by MCL1 exon skipping
same,splicing modulation,"[1]; NHP, PD analyses","predictable, dose-dependent splicing modulation"
same,"SF3B3 intron retention in PBMCs, 4 hours","[1]; NHP, single doses of 3, 10, 15 or 20 mg/kg",detectable at 4 hours
same,"SF3B3 intron retention in PBMCs, 30 min","[1]; NHP, single doses of 3, 10, 15 or 20 mg/kg, compared with vehicle",increased at 30 min
same,ADAR1p150 protein expression,ADAR1p150,reduced ADAR1p150 protein expression
same,effect on normal HSPC and mature hematopoietic progeny,"[2]; 1 μM, compared with DMSO (vehicle)",no significant differences
same,clonogenic survival and replating (self-renewal) sensitivity,"[2]; sAML LSC vs MF HPC or normal cord blood, young or aged bone marrow HPCs",greater sensitivity of secondary AML (sAML) LSC
